Results from the NIST ThermoML archive (doi:10.1021/je1002434).

How the values were obtained:
[1] = wn = mass fraction of the nth substance listed; settings: for surface tension liquid-gas: Maximal bubble pressure; for mass density: 101 kPa, Liquid, Buoyancy - hydrostatic balance with magnetic suspension - one sinker
[2] = for surface tension liquid-gas: Maximal bubble pressure; for mass density: 101 kPa, Liquid, Buoyancy - hydrostatic balance with magnetic suspension - one sinker

CCCn1cc[n+](C)c1.N[C@@H](CCC(=O)O)C(=O)[O-] + O
[1]
Settings	mass density, w2 = 0.00841 [kg/m3]	mass density, w2 = 0.01002 [kg/m3]	mass density, w2 = 0.01126 [kg/m3]	mass density, w2 = 0.01281 [kg/m3]	mass density, w2 = 0.01404 [kg/m3]	surface tension liquid-gas, w2 = 0.0089 [mN/m]	surface tension liquid-gas, w2 = 0.012 [mN/m]	surface tension liquid-gas, w2 = 0.0151 [mN/m]	surface tension liquid-gas, w2 = 0.0192 [mN/m]	surface tension liquid-gas, w2 = 0.0222 [mN/m]
318.15 K	1204.8	1202	1200.3	1197.4	1195.6	55.2	55.4	55.5	55.7	56
323.15 K	1202.2	1199.3	1197.6	1194.7	1193	53.8	54	54.2	54.4	54.7
328.15 K	1199.5	1196.7	1195	1192	1190.4	52.5	52.6	52.8	53.1	53.4
333.15 K	1196.9	1194	1192.3	1189.4	1187.7	50.7	51.2	51.4	51.7	51.9
338.15 K	1194.3	1191.4	1189.6	1186.7	1185	49.4	49.9	50.2	50.4	50.7
343.15 K	1191.6	1188.7	1187	1184.1	1182.4	–	–	–	–	–

CCCn1cc[n+](C)c1.N[C@@H](CCC(=O)O)C(=O)[O-]
[2]
Settings	mass density [kg/m3]	surface tension liquid-gas [mN/m]
298.15 K	1229.2	60.8
318.15 K	1218.6	54.7
323.15 K	1215.9	53.2
328.15 K	1213.2	51.8
333.15 K	1210.6	50.1
338.15 K	1208.2	48.7
343.15 K	1205.3	–
